# Test results from PubChem BioAssay (NCI).
#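 Briefly, cells in 96-well plates were exposed to five compound concentrations for 48 h, and endpoints were estimated by linear interpolation. TGI: concentration producing complete growth inhibition.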
# Columns and labels:
# Assay in all cases: DTP human tumour cell line panel, 48 h
# UACC-62 melanoma = test system: UACC-62 melanoma
# DU-145 prostate = test system: DU-145 prostate
# SNB-19 CNS = test system: SNB-19 CNS
# RXF 393 renal = test system: RXF 393 renal
# SK-MEL-5 melanoma = test system: SK-MEL-5 melanoma
# LOX IMVI melanoma = test system: LOX IMVI melanoma
# NCI-H460 lung = test system: NCI-H460 lung
# NCI-H23 lung = test system: NCI-H23 lung
# U251 CNS = test system: U251 CNS
# NCI-H522 lung = test system: NCI-H522 lung
# SF-295 CNS = test system: SF-295 CNS
# RPMI-8226 leukemia = test system: RPMI-8226 leukemia
# IGROV1 ovarian = test system: IGROV1 ovarian
# M14 melanoma = test system: M14 melanoma
# KM12 colon = test system: KM12 colon
# HOP-62 NSCLC = test system: HOP-62 NSCLC
# NCI-H226 lung = test system: NCI-H226 lung
# MALME-3M melanoma = test system: MALME-3M melanoma
# MCF7 breast = test system: MCF7 breast
smiles,measurement,setting,value
CC1CC(N2CCOCC2)=Nc2ccccc2N1Cc1ccccc1 (centres undefined),TGI,UACC-62 melanoma,> 100 µM
same,TGI,DU-145 prostate,> 100 µM
same,TGI,SNB-19 CNS,> 100 µM
same,TGI,RXF 393 renal,63.4 µM
same,TGI,SK-MEL-5 melanoma,> 100 µM
same,TGI,LOX IMVI melanoma,> 100 µM
same,TGI,NCI-H460 lung,> 100 µM
same,TGI,NCI-H23 lung,> 100 µM
same,TGI,U251 CNS,> 100 µM
same,TGI,NCI-H522 lung,> 100 µM
same,TGI,SF-295 CNS,> 100 µM
same,TGI,RPMI-8226 leukemia,> 100 µM
same,TGI,IGROV1 ovarian,> 100 µM
same,TGI,M14 melanoma,> 100 µM
same,TGI,KM12 colon,> 100 µM
same,TGI,HOP-62 NSCLC,> 100 µM
same,TGI,NCI-H226 lung,> 100 µM
same,TGI,MALME-3M melanoma,63.1 µM
CN(CCNC(=S)c1cn(C)c2c1ccc1ccccc12)CCNC(=S)c1cn(C)c2c1ccc1ccccc12,TGI,UACC-62 melanoma,> 100 µM
same,TGI,DU-145 prostate,> 100 µM
same,TGI,SNB-19 CNS,> 100 µM
same,TGI,RXF 393 renal,7.47 µM
same,TGI,SK-MEL-5 melanoma,> 100 µM
same,TGI,LOX IMVI melanoma,> 100 µM
same,TGI,NCI-H460 lung,> 100 µM
same,TGI,NCI-H23 lung,> 100 µM
same,TGI,U251 CNS,> 100 µM
same,TGI,NCI-H522 lung,> 100 µM
same,TGI,SF-295 CNS,> 100 µM
same,TGI,IGROV1 ovarian,> 100 µM
same,TGI,MCF7 breast,> 100 µM
same,TGI,KM12 colon,> 100 µM
same,TGI,HOP-62 NSCLC,> 100 µM
same,TGI,MALME-3M melanoma,> 100 µM
CNC(=O)N1N[C@H](c2ccccc2)[C@@H]1c1ccccc1,TGI,UACC-62 melanoma,26.8 µM
same,TGI,SNB-19 CNS,> 100 µM
same,TGI,RXF 393 renal,36.6 µM
same,TGI,SK-MEL-5 melanoma,32.8 µM
same,TGI,LOX IMVI melanoma,44.3 µM
same,TGI,NCI-H460 lung,53.4 µM
same,TGI,NCI-H23 lung,47.9 µM
same,TGI,U251 CNS,43 µM
same,TGI,SF-295 CNS,41.2 µM
same,TGI,IGROV1 ovarian,56.4 µM
same,TGI,MCF7 breast,62.5 µM
same,TGI,M14 melanoma,56.1 µM
same,TGI,KM12 colon,45.2 µM
same,TGI,HOP-62 NSCLC,> 100 µM
same,TGI,NCI-H226 lung,32.8 µM
same,TGI,MALME-3M melanoma,72.6 µM
O=C1/C(=C/c2cccs2)NC(=S)N1CN1CCCCC1,TGI,UACC-62 melanoma,> 100 µM
same,TGI,DU-145 prostate,> 100 µM
same,TGI,SNB-19 CNS,> 100 µM
same,TGI,SK-MEL-5 melanoma,> 100 µM
same,TGI,LOX IMVI melanoma,> 100 µM
same,TGI,NCI-H23 lung,> 100 µM
same,TGI,U251 CNS,> 100 µM
same,TGI,NCI-H522 lung,> 100 µM
same,TGI,SF-295 CNS,> 100 µM
same,TGI,RPMI-8226 leukemia,> 100 µM
same,TGI,IGROV1 ovarian,> 100 µM
same,TGI,MCF7 breast,> 100 µM
same,TGI,M14 melanoma,> 100 µM
same,TGI,KM12 colon,> 100 µM
same,TGI,HOP-62 NSCLC,> 100 µM
same,TGI,NCI-H226 lung,> 100 µM
same,TGI,MALME-3M melanoma,> 100 µM
O=C1CSC(c2ccccc2O)N1c1ccc(Oc2ccc(Cl)cc2)c(Cl)c1 (centres undefined),TGI,UACC-62 melanoma,34.3 µM
same,TGI,DU-145 prostate,59.8 µM
same,TGI,SNB-19 CNS,65 µM
same,TGI,SK-MEL-5 melanoma,33.8 µM
same,TGI,LOX IMVI melanoma,32.8 µM
same,TGI,NCI-H460 lung,43.6 µM
same,TGI,NCI-H23 lung,46.6 µM
same,TGI,U251 CNS,39.5 µM
same,TGI,NCI-H522 lung,36.8 µM
same,TGI,SF-295 CNS,34.5 µM
same,TGI,RPMI-8226 leukemia,89.1 µM
same,TGI,IGROV1 ovarian,77.4 µM
same,TGI,MCF7 breast,86.3 µM
same,TGI,M14 melanoma,76.9 µM
same,TGI,KM12 colon,35.7 µM
same,TGI,HOP-62 NSCLC,42.3 µM
same,TGI,NCI-H226 lung,> 100 µM
same,TGI,MALME-3M melanoma,30.2 µM
O=C(O)Cc1cccc2c(=O)c3cccc([N+](=O)[O-])c3[nH]c12,TGI,UACC-62 melanoma,76 µM
same,TGI,DU-145 prostate,> 100 µM
same,TGI,SNB-19 CNS,> 100 µM
same,TGI,SK-MEL-5 melanoma,> 100 µM
same,TGI,LOX IMVI melanoma,> 100 µM
same,TGI,NCI-H460 lung,> 100 µM
same,TGI,NCI-H23 lung,> 100 µM
same,TGI,U251 CNS,> 100 µM
same,TGI,NCI-H522 lung,> 100 µM
same,TGI,SF-295 CNS,> 100 µM
same,TGI,RPMI-8226 leukemia,> 100 µM
same,TGI,IGROV1 ovarian,> 100 µM
same,TGI,MCF7 breast,> 100 µM
same,TGI,M14 melanoma,> 100 µM
same,TGI,KM12 colon,> 100 µM
same,TGI,HOP-62 NSCLC,> 100 µM
same,TGI,MALME-3M melanoma,97.6 µM
O=S(=O)(O)c1ccc2cc(N=Nc3c(O)ccc4ccccc34)ccc2c1,TGI,UACC-62 melanoma,> 100 µM
same,TGI,DU-145 prostate,> 100 µM
same,TGI,SNB-19 CNS,> 100 µM
same,TGI,RXF 393 renal,> 100 µM
same,TGI,SK-MEL-5 melanoma,> 100 µM
same,TGI,NCI-H460 lung,> 100 µM
same,TGI,NCI-H23 lung,> 100 µM
same,TGI,U251 CNS,> 100 µM
same,TGI,NCI-H522 lung,> 100 µM
same,TGI,SF-295 CNS,> 100 µM
same,TGI,IGROV1 ovarian,> 100 µM
same,TGI,MCF7 breast,> 100 µM
same,TGI,M14 melanoma,> 100 µM
same,TGI,KM12 colon,> 100 µM
same,TGI,HOP-62 NSCLC,> 100 µM
same,TGI,NCI-H226 lung,> 100 µM
same,TGI,MALME-3M melanoma,> 100 µM
CSC(=N)N1N=C2/C(=C/c3ccccc3)CCC[C@H]2[C@H]1c1ccccc1,TGI,UACC-62 melanoma,23.9 µM
same,TGI,SNB-19 CNS,19.3 µM
same,TGI,RXF 393 renal,9.85 µM
same,TGI,LOX IMVI melanoma,16.2 µM
same,TGI,NCI-H460 lung,20.1 µM
same,TGI,NCI-H23 lung,19.2 µM
same,TGI,U251 CNS,25.9 µM
same,TGI,NCI-H522 lung,17.2 µM
same,TGI,SF-295 CNS,16.9 µM
same,TGI,RPMI-8226 leukemia,7.12 µM
same,TGI,IGROV1 ovarian,9.18 µM
same,TGI,M14 melanoma,14.8 µM
same,TGI,KM12 colon,23.2 µM
same,TGI,HOP-62 NSCLC,20.8 µM
same,TGI,NCI-H226 lung,11.2 µM
same,TGI,MALME-3M melanoma,3.94 µM
C=C1C2CCC3(CCC4C5(C)CCCC4(C=[N+](CCO)C5)C3C2)C1O (centres undefined),TGI,UACC-62 melanoma,> 100 µM
same,TGI,DU-145 prostate,> 100 µM
same,TGI,SNB-19 CNS,> 100 µM
same,TGI,RXF 393 renal,> 100 µM
same,TGI,SK-MEL-5 melanoma,> 100 µM
same,TGI,LOX IMVI melanoma,> 100 µM
same,TGI,NCI-H460 lung,> 100 µM
same,TGI,NCI-H23 lung,> 100 µM
same,TGI,U251 CNS,> 100 µM
same,TGI,NCI-H522 lung,> 100 µM
same,TGI,SF-295 CNS,> 100 µM
same,TGI,RPMI-8226 leukemia,> 100 µM
same,TGI,IGROV1 ovarian,> 100 µM
same,TGI,MCF7 breast,> 100 µM
same,TGI,M14 melanoma,> 100 µM
same,TGI,KM12 colon,> 100 µM
same,TGI,HOP-62 NSCLC,> 100 µM
same,TGI,MALME-3M melanoma,> 100 µM
C=C(CCC=C(C)C)C1CC=C(C)CC1 (centres undefined),TGI,UACC-62 melanoma,> 100 µM
same,TGI,DU-145 prostate,71.1 µM
same,TGI,SNB-19 CNS,> 100 µM
same,TGI,RXF 393 renal,31.6 µM
same,TGI,SK-MEL-5 melanoma,31 µM
same,TGI,LOX IMVI melanoma,21.9 µM
same,TGI,NCI-H460 lung,40.1 µM
same,TGI,NCI-H23 lung,34.9 µM
same,TGI,U251 CNS,34.8 µM
same,TGI,NCI-H522 lung,32.3 µM
same,TGI,SF-295 CNS,45 µM
same,TGI,IGROV1 ovarian,28.4 µM
same,TGI,MCF7 breast,42.2 µM
same,TGI,M14 melanoma,> 100 µM
same,TGI,KM12 colon,52.6 µM
same,TGI,HOP-62 NSCLC,37.4 µM
same,TGI,NCI-H226 lung,> 100 µM
same,TGI,MALME-3M melanoma,> 100 µM
CC(=O)O[C@@H]1[C@H]2[C@@H](OC(=O)c3ccccc3)[C@@H](C)C[C@]2(O)[C@H](OC(C)=O)[C@@]2(C)[C@@H]3C[C@@](C)(OC(C)=O)C[C@@H](OC(C)=O)[C@@]3(OC(C)=O)C[C@@]12C,TGI,UACC-62 melanoma,> 10 µM
same,TGI,DU-145 prostate,> 10 µM
same,TGI,SNB-19 CNS,> 10 µM
same,TGI,RXF 393 renal,> 10 µM
same,TGI,SK-MEL-5 melanoma,> 10 µM
same,TGI,LOX IMVI melanoma,> 10 µM
same,TGI,NCI-H460 lung,> 10 µM
same,TGI,NCI-H23 lung,> 10 µM
same,TGI,U251 CNS,> 10 µM
same,TGI,NCI-H522 lung,> 10 µM
same,TGI,SF-295 CNS,> 10 µM
same,TGI,IGROV1 ovarian,> 10 µM
same,TGI,MCF7 breast,> 10 µM
same,TGI,M14 melanoma,> 10 µM
same,TGI,KM12 colon,> 10 µM
same,TGI,HOP-62 NSCLC,> 10 µM
same,TGI,NCI-H226 lung,> 10 µM
CCOP(=O)(OCC)C(Cc1ccc(Cl)cc1)NS(=O)(=O)c1ccc(C)cc1 (centres undefined),TGI,UACC-62 melanoma,> 100 µM
same,TGI,DU-145 prostate,> 100 µM
same,TGI,SNB-19 CNS,> 100 µM
same,TGI,RXF 393 renal,> 100 µM
same,TGI,SK-MEL-5 melanoma,> 100 µM
same,TGI,LOX IMVI melanoma,> 100 µM
same,TGI,NCI-H460 lung,> 100 µM
same,TGI,NCI-H23 lung,> 100 µM
same,TGI,U251 CNS,> 100 µM
same,TGI,NCI-H522 lung,> 100 µM
same,TGI,SF-295 CNS,> 100 µM
same,TGI,RPMI-8226 leukemia,> 100 µM
same,TGI,IGROV1 ovarian,> 100 µM
same,TGI,MCF7 breast,> 100 µM
same,TGI,M14 melanoma,> 100 µM
same,TGI,KM12 colon,> 100 µM
same,TGI,HOP-62 NSCLC,> 100 µM
same,TGI,MALME-3M melanoma,> 100 µM
C[C@@]1(OC(=O)c2cc([N+](=O)[O-])cc([N+](=O)[O-])c2)C[C@@H]2CCCC[C@@H]21,TGI,UACC-62 melanoma,> 100 µM
same,TGI,DU-145 prostate,> 100 µM
same,TGI,SNB-19 CNS,> 100 µM
same,TGI,SK-MEL-5 melanoma,> 100 µM
same,TGI,LOX IMVI melanoma,> 100 µM
same,TGI,NCI-H460 lung,> 100 µM
same,TGI,NCI-H23 lung,> 100 µM
same,TGI,U251 CNS,> 100 µM
same,TGI,NCI-H522 lung,> 100 µM
same,TGI,SF-295 CNS,> 100 µM
same,TGI,RPMI-8226 leukemia,> 100 µM
same,TGI,IGROV1 ovarian,> 100 µM
same,TGI,MCF7 breast,> 100 µM
same,TGI,M14 melanoma,> 100 µM
same,TGI,KM12 colon,> 100 µM
same,TGI,HOP-62 NSCLC,> 100 µM
same,TGI,NCI-H226 lung,> 100 µM
same,TGI,MALME-3M melanoma,> 100 µM
